Key:
CCRF-CEM = assay: Antiproliferative activity against human CCRF-CEM cells after 48 hrs by resazurin dye-based fluorescence assay; assay type: functional, cell-based
hTERT-BJ [1] = assay: Cytotoxicity against hTERT-BJ cells at 50 uM after 48 hrs by resazurin dye-based fluorescence assay relative to control; assay type: cell-based; details: human
TERT-RPE1 [2] = assay: Cytotoxicity against hTERT-RPE1 cells after 48 hrs by resazurin dye-based fluorescence assay; assay type: cell-based; details: Homo sapiens, RPE-1, 48 h
[3] = Selectivity index, ratio of IC50 for hTERT-BJ cells to IC50 for human CCRF-CEM cells; assay type: toxicity; details: hTERT-BJ cells versus CCRF-CEM cells, read-out: Ratio IC50
hTERT-BJ [4] = assay: Cytotoxicity against hTERT-BJ cells at 6.25 uM after 48 hrs by resazurin dye-based fluorescence assay relative to control; assay type: cell-based; details: human
TERT-RPE1 [5] = assay: Cytotoxicity against hTERT-RPE1 cells at 12.50 uM after 48 hrs by resazurin dye-based fluorescence assay relative to control; assay type: cell-based; details: human, tert-rpe1, 48 h, 12.5 µM
hTERT-BJ [6] = assay: Cytotoxicity against hTERT-BJ cells after 48 hrs by resazurin dye-based fluorescence assay; assay type: cell-based; details: Homo sapiens
TERT-RPE1 [7] = assay: Cytotoxicity against hTERT-RPE1 cells at 6.25 uM after 48 hrs by resazurin dye-based fluorescence assay relative to control; assay type: cell-based; details: human, tert-rpe1, 48 h
[8] = Selectivity index, ratio of IC50 for hTERT-RPE1 cells to IC50 for human CCRF-CEM cells; assay type: toxicity; details: hTERT-RPE1 cells versus CCRF-CEM cells, read-out: Ratio IC50
[9] = Selectivity index, ratio of IC50 for hTERT-RPE1 cells to IC50 for human HepG2 cells; assay type: toxicity; details: hTERT-RPE1 cells versus HepG2 cells, read-out: Ratio IC50
HepG2 [10] = assay: Antiproliferative activity against human HepG2 cells after 48 hrs by resazurin dye-based fluorescence assay; assay type: functional, cell-based; details: HepG2, 48 h
[11] = Selectivity index, ratio of IC50 for hTERT-BJ cells to IC50 for human HepG2 cells; assay type: toxicity; details: hTERT-BJ cells versus HepG2 cells, read-out: Ratio IC50
HepG2 [12] = assay: Induction of apoptosis in human HepG2 cells assessed as increase in caspase-3/7 activity after 24 hrs by Caspase-Glo 3/7 luminescence assay; assay type: functional, cell-based
PANC-1 [13] = assay: Induction of apoptosis in human PANC1 cells assessed as increase in caspase-3/7 activity after 24 hrs by Caspase-Glo 3/7 luminescence assay; assay type: functional, cell-based
PANC-1 [14] = assay: Antiproliferative activity against human PANC1 cells after 48 hrs by resazurin dye-based fluorescence assay; assay type: functional, cell-based; details: PANC-1, 48 h
[15] = Selectivity index, ratio of IC50 for hTERT-BJ cells to IC50 for human PANC1 cells; assay type: toxicity; details: hTERT-BJ cells versus PANC1 cells, read-out: Ratio IC50
[16] = Selectivity index, ratio of IC50 for hTERT-RPE1 cells to IC50 for human PANC1 cells; assay type: toxicity; details: hTERT-RPE1 cells versus PANC1 cells, read-out: Ratio IC50
hTERT-BJ [17] = assay: Cytotoxicity against hTERT-BJ cells at 12.50 uM after 48 hrs by resazurin dye-based fluorescence assay relative to control; assay type: cell-based; details: human, 12.5 µM
hTERT-BJ [18] = assay: Cytotoxicity against hTERT-BJ cells at 25 uM after 48 hrs by resazurin dye-based fluorescence assay relative to control; assay type: cell-based; details: human
TERT-RPE1 [19] = assay: Cytotoxicity against hTERT-RPE1 cells at 50 uM after 48 hrs by resazurin dye-based fluorescence assay relative to control; assay type: cell-based; details: human, tert-rpe1, 48 h
TERT-RPE1 [20] = assay: Cytotoxicity against hTERT-RPE1 cells at 25 uM after 48 hrs by resazurin dye-based fluorescence assay relative to control; assay type: cell-based; details: human, tert-rpe1, 48 h

SMILES	IC50 (CCRF-CEM)	IC50 (HepG2 [10])	IC50 (PANC-1 [14])	Activity (hTERT-BJ [1])	IC50 (TERT-RPE1 [2])	selectivity ratio [3]	Activity (hTERT-BJ [4])	Activity (TERT-RPE1 [5])	IC50 (hTERT-BJ [6])	Activity (TERT-RPE1 [7])	selectivity ratio [8]	selectivity ratio [9]	selectivity ratio [11]	Activity (HepG2 [12])	selectivity ratio [15]	selectivity ratio [16]	Activity (hTERT-BJ [17])	Activity (hTERT-BJ [18])	Activity (TERT-RPE1 [19])	Activity (TERT-RPE1 [20])	further results
CCOc1ccc2nc(Cl)c(/C=N/NC(=O)c3cc4cc([N+](=O)[O-])ccc4oc3=O)cc2c1	15.7 µM	18.1 µM	10.5 µM	3.33%	> 50 µM	> 3.19	1.58%	3.92%	> 50 µM	1.74%	> 3.19	> 2.77	> 2.77	Dose-dependent effect	> 4.75	> 4.75	1.38%	2.13%	10.48%	5.6%	Activity (PANC-1 [13]): Dose-dependent effect
CCOc1ccc(NC(=O)c2cc3cc(Br)ccc3oc2=O)cc1	21.8 µM	37 µM	16.8 µM	3.3%	> 50 µM	> 2.3	2.3%	9.63%	> 50 µM	3.04%	> 2.3	> 1.35	> 1.35	–	> 2.97	> 2.97	1.19%	1.86%	16.45%	13.28%	–
Cc1noc(NS(=O)(=O)c2ccc(NC(=O)c3cc4ccccc4oc3=O)cc2)c1C	26.6 µM	24 µM	19.9 µM	26.66%	> 50 µM	> 1.88	8.49%	13.72%	> 50 µM	9.28%	> 1.88	> 2.09	> 2.09	–	> 2.51	> 2.51	10.4%	15.88%	47.61%	33.32%	–

Further lines, with some results ahead:

IC50 (CCRF-CEM)	IC50 (HepG2 [10])	IC50 (PANC-1 [14])	SMILES	Activity (hTERT-BJ [1])	IC50 (TERT-RPE1 [2])	selectivity ratio [3]	Activity (hTERT-BJ [4])	Activity (TERT-RPE1 [5])	IC50 (hTERT-BJ [6])	Activity (TERT-RPE1 [7])	selectivity ratio [8]	selectivity ratio [9]	selectivity ratio [11]	Activity (HepG2 [12])	selectivity ratio [15]	selectivity ratio [16]	Activity (hTERT-BJ [17])	Activity (hTERT-BJ [18])	Activity (TERT-RPE1 [19])	Activity (TERT-RPE1 [20])	further results
6.34 µM	4.89 µM	25.7 µM	O=C(N/N=C/c1ccncc1)c1cc2cc(Br)ccc2oc1=O	2.52%	> 50 µM	> 7.88	0.6%	17.16%	> 50 µM	9.63%	> 7.88	> 10.2	> 10.2	Dose-dependent effect	> 1.94	> 1.94	0.2%	1.37%	39.96%	34.5%	Activity (PANC-1 [13]): Dose-dependent effect
9.9 µM	15.9 µM	15.3 µM	O=C(N/N=C/c1cccnc1)c1cc2ccccc2oc1=O	2.6%	> 50 µM	> 5.05	0.21%	8.28%	> 50 µM	7.46%	> 5.05	> 3.14	> 3.14	Dose-dependent effect	> 3.27	> 3.27	0.97%	5.22%	14.75%	9.89%	Activity (PANC-1 [13]): Dose-dependent effect
6.32 µM	33.1 µM	29.9 µM	CCOc1ccc2nc(Cl)c(/C=N/NC(=O)c3cc4ccccc4oc3=O)cc2c1	3.64%	> 50 µM	> 7.92	2.77%	1.23%	> 50 µM	1.13%	> 7.92	> 1.51	> 1.51	–	> 1.67	> 1.67	5.65%	3.92%	9.97%	9.5%	–
26 µM	22.8 µM	38.8 µM	O=C(N/N=C/c1cc2ccccc2nc1Cl)c1cc2cc([N+](=O)[O-])ccc2oc1=O	2.73%	> 50 µM	> 1.92	1.2%	0.73%	> 50 µM	1.3%	> 1.92	> 2.2	> 2.2	–	> 1.29	> 1.29	1.37%	1.77%	2.33%	1.96%	–
